SMILES strings stand for the structures. Counter-ions that a name gives are not always drawn.

The target of one assay is T1, postsynaptic muscarinic cholinergic receptors on intestinal (ileal-longitudinal) smooth muscle (Cavia porcellus, UniProt H0W1Z3).
T1 construct: The longitudinal muscle, with the myenteric plexus attached, is separated from the underlying circular muscle; from tissue; host or cells: guinea pig ileum, longitudinal muscle strip with myenteric plexus attached
T1 sequence (H0W1Z3 1-590): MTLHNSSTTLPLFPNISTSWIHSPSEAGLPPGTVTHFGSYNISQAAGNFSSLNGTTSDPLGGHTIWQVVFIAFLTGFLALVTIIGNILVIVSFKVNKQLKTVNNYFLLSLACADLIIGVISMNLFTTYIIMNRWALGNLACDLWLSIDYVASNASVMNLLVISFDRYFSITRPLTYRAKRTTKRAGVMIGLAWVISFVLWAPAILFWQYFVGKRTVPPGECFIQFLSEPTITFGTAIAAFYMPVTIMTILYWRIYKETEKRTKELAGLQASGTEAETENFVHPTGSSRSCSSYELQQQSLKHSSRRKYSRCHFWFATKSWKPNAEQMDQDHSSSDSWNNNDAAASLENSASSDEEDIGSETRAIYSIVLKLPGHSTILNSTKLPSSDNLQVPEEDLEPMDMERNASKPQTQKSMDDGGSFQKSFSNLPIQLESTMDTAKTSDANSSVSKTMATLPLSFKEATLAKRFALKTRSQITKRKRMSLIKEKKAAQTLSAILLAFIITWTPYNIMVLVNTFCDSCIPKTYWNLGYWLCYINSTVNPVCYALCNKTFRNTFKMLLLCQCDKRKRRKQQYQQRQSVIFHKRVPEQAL
As to the kind of experiment: Antimuscarinic Test Protocol: antagonism of carbachol-induced contraction of ileum strips (Table 1). Conditions: carbachol as agonist, read-out: Anti-muscarinic Activity Kb. The class given is cell-based, guinea pig. The protocol: Antimuscarinic Test Protocol.
Male albino guinea pigs are killed by decapitation or cervical dislocation. The cavity is opened and the small intestine is removed, with about 10 cm of the terminal ileum being discarded. The intestine is placed in a Petri dish that contains Tyrodes solution (137 mM NaCl, 2.78 mM KCl, 1.8 mM CaCl2.2H2 O, 1.1 mM MgCl2.6H2 O, 0.4 mM […], 11.8 mM NaHCO3, 5.6 mM dextrose) and cut into 3-4 cm segments. The segments are preferentially taken from the aboral end of the ileum. Each segment is carefully stretched onto a glass rod 6 mm in diameter and the remaining mesenteric tissue is cut away. The longitudinal muscle, with the myenteric plexus attached, is separated from the underlying circular muscle by gently stroking with a cotton-tipped applicator soaked in Tyrodes solution on a tangent away from the shallow longitudinal incisions made parallel to the mesenteric attachment. Using gentle traction, and taking care to keep the segment moist throughout the whole procedure, the tissue is stripped from the whole length of the segment (Paton and Zar, J. Physiol. 194:13, 1968).
Tissues are suspended with 5-0 silk suture in 10 mL water-jacketed glass tissue baths containing Tyrodes solution maintained at 37° C. and aerated with 95% O2 /5% CO2. The suture connects each tissue to an isometric force-displacement transducer (Grass or Gould) coupled to a physiograph. Each preparation is suspended under a resting tension of 0.3 g and allowed to equilibrate for 36 minutes. During this period, the baths are emptied and filled every 12 minutes with 10 mL of warm Tyrodes solution. At the end of this equilibration period, each muscle strip is conditioned by adding 10 mM carbachol to the baths. The drug remains in contact with each tissue for 1-2 minutes and then is removed from the bath with 4 rapid rinses of 10 mL of warm Tyrodes solution. The preparations are allowed to recover for an additional 12 minutes before being used in experiments.
Carbachol is dissolved in saline to produce 2×10^-2 M stock concentrations. Serial dilutions (1:10) in saline or water are made from the stock solution. Appropriate volumes of these solutions are added cumulatively to the 10 mL tissue baths in order to obtain the desired bath concentrations.
Compounds that are soluble in water or saline are dissolved in these solvents to produce 2×10^-2 or 2×10^-3 M stock concentrations. Small amounts of 1 N HCl, NaOH, or 95 ethanol may be added for those agents that are not soluble in water or saline alone. […] in dimethylsulfoxide (DMSO) to produce 4×10^-2 M stock solutions. Serial dilutions (1:10) in water are made from the stock solution. Other solvents may be used when appropriate and will be specifically described in the experimental procedure. Appropriate volumes are then added to the baths in order to obtain the desired bath concentrations.
Appropriate volumes of carbachol solutions are cumulatively added to the 10 mL tissue baths to increase the concentration of carbachol in the bath step-by-step without washing out after each single dose. With each concentration step, the tissue contracts isometrically. The next concentration is added only after the preceding contraction has reached a steady value. […] The tissue is then washed with 4 rapid rinses of 10 mL of warm Tyrodes solution and allowed to recover for 12 minutes [Van Rossum et al., Arch. Int. Pharmacodyn. 143:240, (1963) and 143:299, (1963)]. Antagonism of carbachol responses in the presence of antagonist is determined by repeating the cumulative addition procedure after the tissue has been exposed to the […] for 5 minutes.
Three or four different concentrations of antagonist are studied in the same preparations. Responses are expressed relative to the maximum contraction elicited by carbachol in the absence of antagonist.
As for `O=C1OC(Cn2cccn2)CC1(c1ccccc1)c1ccccc1` (centres unmarked) [Dihydro-3,3-diphenyl-5-(1H-pyrazol-1-ylmethyl)-2(3H)-furanone], the Kb – broadly, the affinity of an antagonist, worked out from how it opposes an agonist – stood at 50 nM.
On to `Cc1cc(C)n(CC2CC(c3ccccc3)(c3ccccc3)C(=O)O2)n1` (centres unmarked) [Dihydro-5-[(3,5-dimethyl-1H-pyrazol-1-yl)methyl]-3.3-diphenyl-2(3H)-furanone hydrochloride], for which the Kb was determined as 1000 nM.
Still for that read-out and setting: with `Cc1ccn(CC2CC(c3ccccc3)(c3ccccc3)C(=O)O2)n1` (centres unmarked) [Dihydro-5-[(3-methyl-1H-pyrazol-1-yl)methyl]-3,3-diphenyl-2(3H)-furanone] the figure was 239 nM.
On to `Cc1cnn(CC2CC(c3ccccc3)(c3ccccc3)C(=O)O2)c1` (centres unmarked) [Dihydro-5-[(4-methyl-1H-pyrazol-1-yl)methyl]-3,3-diphenyl-2(3H)-furanone], for which the Kb came out at 251 nM.
As to `CC[n+]1cccn1CC1CC(c2ccccc2)(c2ccccc2)C(=O)O1` (centres unmarked) [Ethyl dihydro-3,3-diphenyl-5-(1H-pyrazol-1-ylmethyl)-2(3H)-furanone chloride], the Kb was 49 nM.
For the compound `CC[n+]1c(C)ccn1CC1CC(c2ccccc2)(c2ccccc2)C(=O)O1` (centres unmarked) [Ethyl dihydro-5-[(3-methyl-1H-pyrazol-1-yl)methyl]-3,3-diphenyl-2(3H)-furanone chloride hydrate], the Kb came to 52 nM.
Regarding `CC[n+]1cc(C)cn1CC1CC(c2ccccc2)(c2ccccc2)C(=O)O1` (centres unmarked) [Ethyl dihydro-5-[(4-methyl-1H-pyrazol-1-yl)methyl]-3,3-diphenyl-2(3H)-furanone chloride hydrate], the Kb is 148 nM.
For the compound `C[n+]1cccn1CC1CC(c2ccccc2)(c2ccccc2)C(=O)O1` (centres unmarked) [Methyl dihydro-3,3-diphenyl-5-(1H-pyrazol-1-ylmethyl)-2(3H)-furanone chloride hydrate], the Kb was 100 nM.
Still for that read-out and setting: with `Cc1ccn(CC2CC(c3ccccc3)(c3ccccc3)C(=O)O2)[n+]1C` (centres unmarked) [Methyl dihydro-5-[(3-methyl-1H-pyrazol-1-yl)methyl]-3,3-diphenyl-2(3H)-furanone chloride hydrate] the figure was 142 nM; with `Cc1cn(CC2CC(c3ccccc3)(c3ccccc3)C(=O)O2)[n+](C)c1` (centres unmarked) [Methyl dihydro-5-[(4-methyl-1H-pyrazol-1-yl)methyl]-3,3-diphenyl-2(3H)-furanone chloride hydrate], 117 nM.

In another assay the test system is isolated guinea pig ileum.
Assay: not given
Conditions: cited from earlier work.
Take `CN(C)CC1CC(c2ccccc2)(c2ccccc2)OC1=O` (centres unmarked) [3-[(dimethylamino)methyl]-4,5-dihydro-5,5-diphenyl-2(3H)furanone]: the “prevention of contractions of isolated guinea pig ileum” value is listed as “prevents contractions of isolated guinea pig ileum”.
